What was measured:
[1] = target: T1, CCK (gallbladder) receptor (Cavia porcellus, UniProt Q63931); test: CCK-receptor bioassay, isolated guinea-pig gall-bladder strip preparations, CCK-8 as agonist; assay type: cell-based, male Dunkin-Hartley guinea-pigs; details: negative log10 of equilibrium dissociation constant; guinea-pig gall-bladder strips; CCK-8 agonist; test compound incubated for 60 minutes; 37° C; read-out: pKB versus CCK (gallbladder) (converted)
T1 construct: Isolated, strip preparations were prepared from gall-bladders removed from male Dunkin-Hartley guinea-pigs; from tissue; host or cells: guinea-pig gall-bladder strips
T1 sequence (Q63931 1-430): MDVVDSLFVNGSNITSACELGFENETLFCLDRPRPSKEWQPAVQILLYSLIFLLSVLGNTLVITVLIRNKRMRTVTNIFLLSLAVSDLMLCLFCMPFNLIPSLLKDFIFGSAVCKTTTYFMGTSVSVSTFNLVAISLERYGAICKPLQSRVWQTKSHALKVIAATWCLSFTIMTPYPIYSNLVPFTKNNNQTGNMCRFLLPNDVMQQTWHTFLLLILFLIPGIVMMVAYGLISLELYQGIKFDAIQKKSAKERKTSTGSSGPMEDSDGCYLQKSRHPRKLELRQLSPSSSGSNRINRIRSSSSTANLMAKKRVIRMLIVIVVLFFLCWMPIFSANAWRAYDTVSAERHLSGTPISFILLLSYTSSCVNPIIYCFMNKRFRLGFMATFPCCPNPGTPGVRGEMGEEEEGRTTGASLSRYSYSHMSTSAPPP
Method: The compounds of the examples were assayed using a CCK-receptor bioassay as follows:
Isolated, strip preparations were prepared from gall-bladders removed from male Dunkin-Hartley guinea-pigs (250-500 g body weight) according to the method of La Morte, W. W., et al., J.P.E.T., 217, (3), 638-644 (1981).
The complete gall-bladder is removed and opened along the longitudinal axis. Strips measuring 3 mm in the longitudinal axis and 1 mm in the transverse axis are cut and then tied with cotton to stainless steel wires. The preparation is connected to a GRASS FTO3 isometric transducer under an initial loading tension of 1 g and is immersed in 20 mls of Krebs solution maintained at 37° C. and gassed with 95% O2 /5% CO2. The Krebs solution is as detailed above in connection with the fundus assay, except that the Ca^2+ concentration is decreased to 0.5 mM. After 30 mins the preparation is washed. Drug addition begins after an initial 90 min stabilisation period. Responses are measured as changes in tension from that immediately prior to any drug addition. Single cumulative agonist concentration-effect curves, using CCK-8 as agonist, are obtained on each preparation in the absence and presence of test compound which has been incubated for 60 minutes. The antagonist activity of the test compound is estimated and expressed as the negative logarithm (base 10) of the equilibrium dissociation constants (pKB) using the modifications of standard competitive analysis described by Black et al., Br. J. Pharmacol.,86,571-579, (1985) and Shankley et al., Br. J. Pharmacol.,94,264-274 (1988).

[2] = target: T2, CCKA (Cavia porcellus, UniProt Q63931); test: CCKA binding assay, pancreas membranes, [125I]-CCK8(S); design: species or system male guinea-pigs (Dunkin Hartley); details: guinea-pig pancreas membranes; [125I]-CCK8(S) 200 pM; 0.375 μM PD134,308; 150 minutes at 21°; non-specific binding 100 nM L-364,718; read-out: pKi CCKλ (converted)
T2 construct: The pancreatata were removed from male guinea-pigs (200-300 g; Dunkin Hartley); from tissue; host or cells: guinea-pig pancreas membranes
T2 sequence (Q63931 1-430): T1 sequence (Q63931 1-430)
Method: The compounds of the examples were also tested in a CCKA binding assay as follows:
The pancreatata were removed from male guinea-pigs (200-300 g; Dunkin Hartley) and placed in ice-cold HEPES buffer (pH 7.2@21°±3°). The pancreatata were homogenised in 40 ml ice-cold HEPES buffer using a polytron (Brinkmann, PT10, setting 10) 4×1 second. The homogenate was centrifuged at 39,800 g for 15 min at 4°. The supernatant was discarded and the pellet re-suspended using a Teflon-in-glass homogeniser in 20 volumes of fresh buffer and re-centrifuged as above. The final pellet was re-suspended using a Teflon-in-glass homogeniser to a tissue concentration of 1 mg ml^31 1 (original wet weight), and filtered through 500 μm pore-size Nytex mesh.
The membranes (400 μl; containing 0.375 μM PD134,308) are incubated for 150 minutes at 21°±3° in a final volume of 0.5 ml with HEPES buffer containing [^125 I]--CCK8 (S) (50 μl; 200 pM) and competing compound. Total and non-specific binding of [^125 I]--CCK8 (S) are defined using 50 μl of buffer and 50 μl of 100 nM L-364,718 respectively. The assay is terminated by rapid filtration through pre-soaked Whatman GF/B filters using a Brandell Cell Harvester. The filters were washed (3×3 ml) with ice-cold 50 mM Tris HCl (pH 7.4 at 4°) and bound radioactivity is determined by counting (1 min) in a gamma counter.

[3] = target: T3, CCKB receptor (Mus musculus, UniProt P56481); test: CCKB radioligand binding assay in mouse cortical membranes, [125I] CCK-8S (selectivity testing); design: species or system male mice; details: [125I] CCK-8S 200 pM, 150 min at 21°, pH 7.2, non-specific binding L-365,260, read-out: pKi CCKB (converted)
T3 construct: CCKB receptor in mouse cortical membranes; from tissue; host or cells: mouse cerebral cortex membranes (male mice, Charles River)
T3 sequence (P56481 1-453): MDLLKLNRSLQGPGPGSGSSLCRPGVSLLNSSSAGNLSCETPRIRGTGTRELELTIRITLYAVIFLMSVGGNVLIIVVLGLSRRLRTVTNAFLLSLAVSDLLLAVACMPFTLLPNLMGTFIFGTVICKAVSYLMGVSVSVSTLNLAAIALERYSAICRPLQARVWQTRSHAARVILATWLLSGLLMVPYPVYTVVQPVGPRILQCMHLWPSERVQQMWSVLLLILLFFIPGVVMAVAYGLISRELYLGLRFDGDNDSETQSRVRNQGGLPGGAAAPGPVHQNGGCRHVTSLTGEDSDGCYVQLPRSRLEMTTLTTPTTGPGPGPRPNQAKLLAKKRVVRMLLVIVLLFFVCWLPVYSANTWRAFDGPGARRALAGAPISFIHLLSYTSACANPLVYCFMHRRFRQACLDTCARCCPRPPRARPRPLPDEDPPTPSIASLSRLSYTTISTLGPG
Method: The compounds were assayed for selectivity with respect to the CCKB receptor in mouse cortical membranes by means of a radioligand binding assay. The procedure was as follows:
The whole brains from male mice (CDI 22-25 g; Charles River) were removed and placed in ice-cold buffer (pH 7.2 at 21°±3° C.) of the following composition (mM); 10 HEPES, 130 NaCl, 4.7 KCl, 5 MgCl2, 1 EDTA and containing 0.25 g. 1^-1 bacitracin.
The cortex was dissected, weighed and homogenised in 40 ml ice-cold buffer using a Teflon-in-glass homogeniser. The homogenate was centrifuged at 39,800 g for 20 min at 4° C., the supernatant discarded and the pellet resuspended by homogenisation in fresh buffer. The homogenate was recentrifuged (39,800 g; 20 min at 4° C.) and the final pellet was resuspended in HEPES buffer to give a tissue concentration of 2 mg ml^-1 (original wet weight).
The membranes (400 μl) were incubated for 150 min at 21°±3° C. in a final volume of 0.5 ml with HEPES buffer containing [^125 I] CCK-8S (0.05 ml; 200 pM NEN 2200Ci.mmol^-1) and competing compound. Total and non-specific binding of [^125 I] CCK-8S were defined using 0.05 ml of buffer and 0.05 ml of 10 mM L-365,260, respectively. The assay was terminated by rapid filtration through pre-soaked Whatman GF/B filters using a Brandell Cell harvester. The filters were washed (3×3 ml) with ice-cold 50 mM Tris-HCl (pH 7.4 at 4° C.) and bound radioactivity determined by counting (1 min.) in a gamma counter.

| SMILES | Kb [1] [nM] | Ki [2] [nM] | Ki [3] [nM] |
| --- | --- | --- | --- |
| CCCCCN(CCCCC)C(=O)[C@@H](CC(=O)O)NS(=O)(=O)c1ccc2ccccc2c1 [Example 18, 2-Naphthalenesulphonyl-D-aspartyl dipentylamide] | 158 | 631 | 3160 |
| CCCCCN(CCCCC)C(=O)[C@H](CCC(=O)O)NS(=O)(=O)c1ccc2ccccc2c1 [Example 19, 2-Naphthalenesulphonyl-L-glutamyl dipentylamide] | 631 | 1580 | 3160 |
| CCCCCN(CCCCC)C(=O)[C@H](CC(=O)O)NS(=O)(=O)c1cccc2ccccc12 [Example 21, 1-Naphthalenesulphonyl-L-aspartyl dipentylamide] | 1260 | 2000 | 10000 |
